Test results from patent US5710123A, “Peptide inhibitors of selectin binding” (Centocor, Inc., priority 1995, dated 1998).
Where a SMILES comes first, the peptide text is derived from it. Bridges are numbered along the chain shown (N, C = ends). Where no end group is shown, it is not given here.

Target: T1, P-selectin (Homo sapiens, UniProt P16109)
T1 construct: from tissue; host or cells: outdated human platelet packs from a blood bank
T1 sequence (P16109 42-830): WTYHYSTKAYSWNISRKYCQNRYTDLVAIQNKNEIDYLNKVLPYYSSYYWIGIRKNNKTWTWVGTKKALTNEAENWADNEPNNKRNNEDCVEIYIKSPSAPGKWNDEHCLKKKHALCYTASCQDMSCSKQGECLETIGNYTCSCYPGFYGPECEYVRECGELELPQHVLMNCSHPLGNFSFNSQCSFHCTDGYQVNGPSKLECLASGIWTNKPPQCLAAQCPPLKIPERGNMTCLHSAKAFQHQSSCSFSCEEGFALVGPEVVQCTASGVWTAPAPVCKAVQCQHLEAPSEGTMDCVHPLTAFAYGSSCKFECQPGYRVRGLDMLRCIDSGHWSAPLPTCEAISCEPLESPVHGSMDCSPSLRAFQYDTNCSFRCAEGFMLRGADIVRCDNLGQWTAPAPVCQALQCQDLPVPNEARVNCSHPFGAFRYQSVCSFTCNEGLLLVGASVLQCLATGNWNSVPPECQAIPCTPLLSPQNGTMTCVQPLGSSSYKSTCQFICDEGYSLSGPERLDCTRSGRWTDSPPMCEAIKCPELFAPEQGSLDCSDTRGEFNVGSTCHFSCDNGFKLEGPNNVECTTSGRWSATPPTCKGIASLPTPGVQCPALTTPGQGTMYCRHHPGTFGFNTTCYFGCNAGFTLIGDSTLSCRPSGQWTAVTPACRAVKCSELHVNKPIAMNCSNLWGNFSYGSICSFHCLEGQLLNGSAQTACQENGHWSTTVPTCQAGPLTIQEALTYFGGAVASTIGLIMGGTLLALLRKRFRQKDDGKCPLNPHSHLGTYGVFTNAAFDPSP
Test: Inhibition of binding of human neutrophils to P-selectin (neutrophil adhesion to purified immobilized P-selectin, myeloperoxidase readout)
Assay type: cell-based
Details: P-selectin purified from human platelets, plated at 5 micrograms/mL, peptides tested 1.0 mM to 0.001 mM
Description: Peptides can be screened for their ability to inhibit adhesion to cells, for example, neutrophil adhesion to purified P-selectin immobilized on plastic wells, using the assay described by Geng, et al., Nature 343, 757-760 1990). Human neutrophils are isolated from heparinized […] blood by density gradient centrifugation on Mono-Poly resolving media, Flow Laboratories. Neutrophil suspensions are greater than 98% pure and greater than 95% viable by trypan blue exclusion. For adhesion assays, neutrophils are suspended at a concentration of 2×10^6 cells/mL in Hanks' balanced salt solution containing 1.26 mM Ca^2+ and 0.81 mM Mg^2+ (HBSS, Gibco) with […] human serum albumin (HBSS/HSA). Adhesion assays are conducted in triplicate in 96-well microtiter plates, Corning, incubated at 4° C. overnight with 50 microliters of various protein solutions. P-selectin is isolated from human platelet lysates by immunoaffinity chromatography on antibody S12-Sepharose™ and ion-exchange chromatography on a Mono-Q™ column (FLPC, Pharmacia Fine Chemicals), as follows. Outdated human platelet packs (100 units) obtained from a blood bank and stored at 4° C. are pooled, adjusted to 5 mM EDTA at pH 7.5, centrifuged at 4,000 rpm for 30 minutes in 1 liter bottles, then washed three times with 1 liter of 0.1M NaCl, 20 mM Tris pH 7.5 (TBS), 5 mM EDTA, 5 mM benzamidine. The pellets are then resuspended in a minimum amount of wash buffer and made 1 mM in DIFP, then frozen in 50 mL screwtop tubes at -80° C. The frozen platelets are thawed and resuspended in 50 mL TBS, 5 mM benzamidine, 5 mM EDTA pH 7.5, […]. The suspension is frozen and thawed two times in a dry ice-acetone bath using a 600 mL lyophilizing flask, then homogenized in a glass/teflon mortar and pestle and made 1 mM in DIFP. The NaCl concentration is adjusted to 0.5M with a stock solution of 4M NaCl. After stirring the suspension at 4° C., it is centrifuged in polycarbonate tubes at 33,000 rpm for 60 minutes at 4° C. The supernatant (0.5M NaCl wash) is removed and saved; this supernatant contains the soluble form of P-selectin. Care is taken not to remove the top part of the pellet with the supernatant. The pellets are then homogenized in extraction buffer (TBS, 5 mM benzamidine, 5 mM EDTA, pH 7.5, 100 μM leupeptin, 2% Triton X-100). After centrifugation at 19,500 rpm for 25 minutes at 4° C., the supernatant is removed. The extraction procedure is repeated with the pellet and the supernatant is combined with the first supernatant. The combined extracts, which contain the membrane form of P-selectin, are adjusted to 0.5M NaCl. The soluble fraction (0.5M NaCl wash) and the membrane extract (also adjusted to 0.5M NaCl) are absorbed with separate pools of the monoclonal antibody S12 (directed to P-selectin) previously coupled to Affigel (Biorad) at 5 mg/mL for 2 hours at 4° C. After letting the resins settle, the supernatants are removed. The S12 Affigel containing bound GMP-140 is then loaded into a column and washed overnight at 4° C. with 400 mL of 0.5M NaCl, 20 mM Tris pH 7.5, 0.01% Lubrol PX. Bound P-selectin is eluted from the S12 Affigel with 100 mL of 80% ethylene glycol, 1 mM MES pH 6.0, 0.01% Lubrol PX. Peak fractions with absorbance at 280 nm are pooled. Eluates are dialyzed against TBS with 0.05% Lubrol, then applied to a Mono Q column (FPLC from Pharmacia). The concentrated protein is step eluted with 2M NaCl, 20 mM Tris pH 7.5 (plus 0.05% Lubrol PX for the membrane fraction). Peak fractions are dialyzed into TBS pH 7.5 (plus 0.05% Lubrol PX for the membrane fraction). P-selectin is plated at 5 micrograms/mL and the control proteins: human serum albumin (Alb), platelet glycoprotein IIb/IIIa (IIb), von Willsbrand factor (vWF), fibrinogen (FIB), thrombomodulin (TM), gelatin (GEL) or human serum (HS), are added at 50 micrograms/mL. […]

Row | IC50 [µM] | Molecule
1 | 74 | Ac-FKKKLALCY-NH2 [SEQ ID NO: 7, Ac-FKKKLALCY--NH2]
2 | 26 | Ac-SKRKRALCY-NH2 [SEQ ID NO: 55, Ac-SKRKRALCY--NH2]
3 | 43 | SKKKLALIY-NH2 [SEQ ID NO: 35, SKKKLALIY--NH2]
4 | 888 | SKHKLALCY-NH2 [SEQ ID NO: 21, SKHKLALCY--NH2]
5 | 55 | HKKKLALCY-NH2 [SEQ ID NO: 10, HKKKLALCY--NH2]
6 | 12 | Ac-SKRKLALCY-NH2 [SEQ ID NO: 53, Ac-SKRKLALCY--NH2]
7 | 626 | CC(C)C[C@@H]1NC(=O)[C@H](C)NC(=O)[C@H](Cc2c[nH]cn2)NC(=O)[C@H](CCCCN)NC(=O)[C@H](CCCCN)NC(=O)[C@H](CCCCN)NC(=O)[C@H](CC(C)C)NC(=O)[C@@H](N)CSSC[C@@H](C(=O)N[C@@H](Cc2ccc(O)cc2)C(N)=O)NC1=O [SEQ ID NO: 4, Cyclo-(cystinyl-leucyl-lysyl-lysyl-lysyl-histidyl-alanyl-leucyl-cystinyl)-tyrosine-amide] (H-CLKKKHALCY-NH2; disulfide 1-9)
8 | 1010 | QKKKLALCY-NH2 [SEQ ID NO: 17, QKKKLALCY--NH2]
9 | 4 | SKRKLALCY-NH2 [SEQ ID NO: 54, SKRKLALCY--NH2]
10 | 128 | Ac-SKKKLALIY-NH2 [SEQ ID NO: 34, Ac-SKKKLALIY--NH2]
11 | 8 | Ac-SKRRLALCY-NH2 [SEQ ID NO: 57, Ac-SKRRLALCY--NH2]
12 | 207 | SKKKLHLCY-NH2 [SEQ ID NO: 44, SKKKLHLCY--NH2]
13 | 232 | SKKKAALCY-NH2 [SEQ ID NO: 24, SKKKAALCY--NH2]
14 | 53 | Ac-NKKKLALCY-NH2 [SEQ ID NO: 14, Ac-NKKKLALCY--NH2]
15 | 192 | Ac-SKKKAALCY-NH2 [SEQ ID NO: 23, Ac-SKKKAALCY--NH2]
16 | 60 | Ac-SKAKLALCY-NH2 [SEQ ID NO: 19, Ac-SKAKLALCY--NH2]
17 | 282 | CC(C)C[C@H](NC(=O)[C@H](C)NC(=O)[C@H](C)NC(=O)[C@H](CCCCN)NC(=O)[C@H](CC(C)C)NC(=O)[C@H](CCCCN)NC(=O)[C@H](Cc1c[nH]cn1)NC(=O)[C@@H](N)CS)C(=O)N[C@@H](CS)C(=O)N[C@@H](Cc1ccc(O)cc1)C(N)=O [SEQ ID NO: 3, Cystinyl-histidyl-lysyl-leucyl-lysyl-alanyl-alanyl-leucyl-cystinyl-tyrosine-amide] (H-CHKLKAALCY-NH2)
18 | 3 | SRKRLALCY-NH2 [SEQ ID NO: 66, SRKRLALCY--NH2]
19 | 65 | SKKKLALCF-NH2 [SEQ ID NO: 29, SKKKLALCF--NH2]
20 | 82 | Ac-SKKKTALCY-NH2 [SEQ ID NO: 47, Ac-SKKKTALCY--NH2]
21 | 858 | SKSKLALCY-NH2 [SEQ ID NO: 60, SKSKLALCY--NH2]
22 | 95 | SKKKLFLCY-NH2 [SEQ ID NO: 43, SKKKLFLCY--NH2]
23 | 9 | SKLKLALCY-NH2 [SEQ ID NO: 52, SKLKLALCY--NH2]
24 | 867 | SKKKLALCI-NH2 [SEQ ID NO: 30, SKKKLALCI--NH2]
25 | 131 | SKKKLALLY-NH2 [SEQ ID NO: 38, SKKKLALLY--NH2]

Row | IC50 [µM] | Molecule
26 | 24 | SKRKRALCY-NH2 [SEQ ID NO: 56, SKRKRALCY--NH2]
27 | 18 | Ac-SRKRLALCY-NH2 [SEQ ID NO: 65, Ac-SRKRLALCY--NH2]
28 | 177 | SKKKLALHY-NH2 [SEQ ID NO: 36, SKKKLALHY--NH2]
29 | 37 | SKFKLALCY-NH2 [SEQ ID NO: 20, SKFKLALCY--NH2]
30 | 269 | CC(C)C[C@H](NC(=O)[C@H](C)NC(=O)[C@H](Cc1c[nH]cn1)NC(=O)[C@H](CCCCN)NC(=O)[C@H](CCCCN)NC(=O)[C@H](CCCCN)NC(=O)[C@H](CC(C)C)NC(=O)[C@@H](N)CS)C(=O)N[C@@H](CS)C(=O)N[C@@H](Cc1ccc(O)cc1)C(N)=O [SEQ ID NO: 1, Cystinyl-leucyl-lysyl-lysyl-lysyl-histidyl-alanyl-leucyl-cystinyl-tyrosine- amide] (H-CLKKKHALCY-NH2)
31 | 20 | FKKKLALCY-NH2 [SEQ ID NO: 8, FKKKLALCY--NH2]
32 | 47 | Ac-SRARLALCY-NH2 [SEQ ID NO: 61, Ac-SRARLALCY--NH2]
33 | 9 | Ac-SKKKLALCY-NH2 [SEQ ID NO: 49, Ac-SKKKLALCY--NH2]
34 | 62 | SKKKIALCY-NH2 [SEQ ID NO: 26, SKKKIALCY--NH2]
35 | 15 | SKKKLALFY-NH2 [SEQ ID NO: 32, SKKKLALFY--NH2]
36 | 17 | Ac-SRKKLALCY-NH2 [SEQ ID NO: 63, Ac-SRKKLALCY--NH2]
37 | 632 | SKRRLALSY-NH2 [SEQ ID NO: 59, SKRRLALSY--NH2]
38 | 16 | SRKKLALCY-NH2 [SEQ ID NO: 64, SRKKLALCY--NH2]
39 | 11 | Ac-HKKKLALCY-NH2 [SEQ ID NO: 9, Ac-HKKKLALCY--NH2]
40 | 107 | SKKKLAICY-NH2 [SEQ ID NO: 28, SKKKLAICY--NH2]
41 | 8 | SKRRLALCY-NH2 [SEQ ID NO: 58, SKRRLALCY--NH2]
42 | 233 | SKKKLALVY-NH2 [SEQ ID NO: 40, SKKKLALVY--NH2]
43 | 178 | LKKKHALCY-NH2 [SEQ ID NO: 11, LKKKHALCY--NH2]
44 | 423 | SKKKLALTY-NH2 [SEQ ID NO: 41, SKKKLALTY--NH2]
45 | 554 | SKKFLALCY-NH2 [SEQ ID NO: 22, SKKFLALCY--NH2]
46 | 86 | SKKKLAFCY-NH2 [SEQ ID NO: 27, SKKKLAFCY--NH2]
47 | 19 | NKKKLALCY-NH2 [SEQ ID NO: 15, NKKKLALCY--NH2]
48 | 65 | LKKKLALCY-NH2 [SEQ ID NO: 13, LKKKLALCY--NH2]
49 | 282 | SSKKLALCY-NH2 [SEQ ID NO: 70, SSKKLALCY--NH2]
50 | 897 | SKKKLAPCY-NH2 [SEQ ID NO: 42, SKKKLAPCY--NH2]
